System: Nucleic Acid
Test: Intrinsic binding constant in calf thymus DNA
Type: nucleic-acid assay, Bos taurus

Compound	Kb [M⁻¹]
CNc1c2ccccc2nc2ccccc12	110000
CNC(=S)N(C)CCNc1c2ccccc2nc2ccccc12	1500000

From ChEMBL document CHEMBL1136618, “Bis(acridinylthiourea)platinum(II) complexes: synthesis, DNA affinity, and biological activity in glioblastoma cells” (Bioorg Med Chem Lett, 2003)
